Laboratory results reported in patent US9023789B2, “Amylin analogs and pharmaceutical compositions thereof” (Novo Nordisk A/S, priority 2012, dated 2015).
Converted amounts (≈) assume the structure as drawn. Like-named read-outs stand apart in the source and are kept apart here. Numbered stars: 1 amine (or outer) side, 2 acyl side, 3 side chain; on linkers, the order of the positions; unused ones are H or OH. Bridge positions count the residues as written; N and C are the ends. Side chains are listed from the residue outwards. Peptide text beside a SMILES is read from it. * marks the point of attachment. C20 diacid = O=C(O)CCCCCCCCCCCCCCCCCCC(=O)*; γGlu = O=C(O)[C@H](CCC(=O)[*:2])N[*:1]; AEEA = NCCOCCOCC(=O)O

Experiments:
[1] = ASSAY (IV) determination of solubility; format: physicochemical
Outline: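 Dissolve polypeptide in water ([…] stock); combine 1:1 with each 100 mM buffer (glycylglycine pH 3.0/4.0/5.0; bistrispropane pH 6.0/6.5/7.0/7.5/8.0); hold 18 hours at room temperature; centrifuge; quantify polypeptide by UPLC.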

[2] = target: T1, human amylin receptor (membranes from Amylin 3(a)/CRE-luc cells) (Homo sapiens, UniProt O60896+P30988); test: ASSAY (V) binding to the human amylin receptor (SPA, 125I-rat amylin);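 further: competition binding of cell membranes (35 ng/µL) mixed with SPA beads in 384-well plates at 40 µL total volume, read by scintillation counting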
T1 construct: expressed in transfected cells
T1 sequence (P30988 25-474): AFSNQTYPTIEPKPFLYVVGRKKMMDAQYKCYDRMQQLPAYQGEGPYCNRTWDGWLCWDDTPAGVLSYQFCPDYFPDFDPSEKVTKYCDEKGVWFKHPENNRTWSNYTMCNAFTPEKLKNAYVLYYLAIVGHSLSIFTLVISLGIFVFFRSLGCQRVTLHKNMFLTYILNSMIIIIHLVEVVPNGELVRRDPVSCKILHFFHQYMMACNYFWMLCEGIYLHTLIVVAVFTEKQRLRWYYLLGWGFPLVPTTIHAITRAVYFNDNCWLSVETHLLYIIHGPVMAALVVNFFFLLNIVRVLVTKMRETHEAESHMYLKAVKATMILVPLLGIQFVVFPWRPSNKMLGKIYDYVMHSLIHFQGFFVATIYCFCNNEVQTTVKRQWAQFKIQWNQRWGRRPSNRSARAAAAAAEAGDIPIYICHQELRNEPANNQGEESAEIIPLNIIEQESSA
T1 sequence (O60896 24-148 partner): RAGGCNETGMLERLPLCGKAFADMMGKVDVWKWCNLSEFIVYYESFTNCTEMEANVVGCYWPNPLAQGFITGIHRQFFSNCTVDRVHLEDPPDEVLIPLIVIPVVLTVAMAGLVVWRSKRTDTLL

[3] = target: T2, rat amylin receptor (rat calcitonin receptor + rat RAMP 3) (Rattus norvegicus, UniProt P32214+Q9JJ73); test: ASSAY (VI) binding to the rat amylin receptor; details: for IC50: binding to rat amylin receptor, read-out: rAmylin-R bind IC50
T2 construct: expressed in transfected cells; host or cells: BHK tk'ts 13 (transient, FuGENE 6), membranes
T2 sequence (P32214 25-479 isoform P32214-2 limits assumed): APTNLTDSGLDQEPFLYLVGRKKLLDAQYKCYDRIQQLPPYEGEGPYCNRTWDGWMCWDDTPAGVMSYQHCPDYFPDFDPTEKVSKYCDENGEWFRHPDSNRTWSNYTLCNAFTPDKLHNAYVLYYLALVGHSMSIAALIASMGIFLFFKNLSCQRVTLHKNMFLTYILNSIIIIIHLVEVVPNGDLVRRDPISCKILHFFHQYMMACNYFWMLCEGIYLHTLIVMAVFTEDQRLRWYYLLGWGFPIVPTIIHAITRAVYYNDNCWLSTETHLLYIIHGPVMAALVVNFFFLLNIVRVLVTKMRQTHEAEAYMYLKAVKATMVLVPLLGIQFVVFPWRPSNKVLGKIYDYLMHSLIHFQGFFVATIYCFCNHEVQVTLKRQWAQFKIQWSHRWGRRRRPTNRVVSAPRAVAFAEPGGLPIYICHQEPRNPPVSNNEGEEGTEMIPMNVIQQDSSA
T2 sequence (Q9JJ73 23-147 partner): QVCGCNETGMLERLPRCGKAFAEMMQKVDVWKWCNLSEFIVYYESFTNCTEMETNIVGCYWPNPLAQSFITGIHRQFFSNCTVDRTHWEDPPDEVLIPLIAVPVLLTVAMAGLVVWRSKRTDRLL
Outline: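 This assay measured binding to the rat amylin receptor. BHK tk′ts 13 cells were transiently transfected with the rat calcitonin receptor using FuGENE® 6 (Roche), following the manufacturer's recommendations. About 48 hours after transfection, the cells were harvested and membranes were prepared from them for the binding determination.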

rat calcitonin receptor = target: T3, rat calcitonin receptor (Rattus norvegicus, UniProt P32214); test: ASSAY (VIII) binding to the rat calcitonin receptor; details: Table 7, read-out: rCTR bind IC50
T3 construct: expressed in transfected cells; host or cells: BHK tk'ts 13 (transient, FuGENE 6), membranes
T3 sequence (P32214 25-479 isoform P32214-2 limits assumed): T2 sequence (P32214 25-479 isoform P32214-2 limits assumed)
Outline: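 Rat calcitonin receptor is expressed transiently in BHK tk′ts 13 cells cultured in DMEM with 10% FBS. Roughly two days (approximately 48 hours) post-transfection, cells are harvested for membrane preparation.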

[4] = bistrispropane buffer, pH 6.5, read-out: Solubility pH 6.5 Concentration
[5] = bistrispropane buffer, pH 7.5, read-out: Solubility pH 7.5 Concentration
[6] = bistrispropane buffer, pH 6.0, read-out: Solubility pH 6.0 Concentration
[7] = bistrispropane buffer, pH 7.0, read-out: Solubility pH 7.0 Concentration
[8] = bistrispropane buffer, pH 8.0, read-out: Solubility pH 8.0 Concentration
[9] = glycylglycine buffer, pH 3.0, read-out: Solubility pH 3.0 Concentration
[10] = glycylglycine buffer, pH 4.0, read-out: Solubility pH 4.0 Concentration
[11] = glycylglycine buffer, pH 5.0, read-out: Solubility pH 5.0 Concentration
[12] = Table 5, selectivity, hCTR bind IC50 / hAmylin-R bind IC50
[13] = Table 5a, selectivity, hCTR bind IC50 / hAmylin-R bind IC50
[14] = Table 5b, selectivity, hCTR bind IC50 / hAmylin-R bind IC50
[15] = Table 5c, selectivity, hCTR bind IC50 / hAmylin-R bind IC50
[16] = Table 7, human binding selectivity, included for comparison
[17] = Table 7a (preferred compounds), human binding selectivity, included for comparison
[18] = ratio of human calcitonin receptor binding IC50 to human amylin receptor binding IC50
[19] = Table 7, rat binding selectivity, rCTR IC50 / rAmylin-R IC50
[20] = Table 7a (preferred compounds), rat binding selectivity, rCTR IC50 / rAmylin-R IC50
[21] = ratio of rCTR bind IC50 to rAmylin-R bind IC50

Row | Compound | solubility at 18 h [1, 4] | solubility at 18 h [1, 5] | solubility at 18 h [1, 6] | solubility at 18 h [1, 7] | solubility at 18 h [1, 8] | solubility at 18 h [1, 9] | solubility at 18 h [1, 10] | solubility at 18 h [1, 11] | Ratio hCT/hAmylin binding [2, 12] | Ratio hCT/hAmylin binding [2, 13] | Ratio hCT/hAmylin binding [2, 14] | Ratio hCT/hAmylin binding [2, 15] | Ratio hCT/hAmylin binding [2, 16] | Ratio hCT/hAmylin binding [2, 17] | Ratio hCT/hAmylin binding [2, 18] | IC50 ([3]; Table 7) | Ratio rCT/rAmylin binding [3, 19] | Ratio rCT/rAmylin binding [3, 20] | Ratio rCT/rAmylin binding [3, 21] | IC50 (rat calcitonin receptor) | also measured
1 | CC[C@H](C)[C@H](NC(=O)[C@H](C)NC(=O)CNC(=O)[C@H](Cc1ccccc1)NC(=O)[C@H](CC(N)=O)NC(=O)[C@@H]1CCCN1C(=O)[C@H](CO)NC(=O)[C@H](CO)NC(=O)[C@H](Cc1c[nH]cn1)NC(=O)[C@H](CCCNC(=N)N)NC(=O)[C@H](CC(C)C)NC(=O)[C@H](Cc1ccccc1)NC(=O)[C@H](CC(N)=O)NC(=O)[C@H](C)NC(=O)[C@H](CC(C)C)NC(=O)[C@H](CCCNC(=N)N)NC(=O)[C@H](CCC(N)=O)NC(=O)[C@@H](NC(=O)[C@H](C)NC(=O)[C@@H]1CSSC[C@H](NC(=O)[C@@H](N)CCCCNC(=O)COCCOCCNC(=O)CC[C@H](NC(=O)CCCCCCCCCCCCCCCCCCC(=O)O)C(=O)O)C(=O)N[C@@H](CC(N)=O)C(=O)N[C@@H]([C@@H](C)O)C(=O)N[C@@H](C)C(=O)N[C@@H]([C@@H](C)O)C(=O)N1)[C@@H](C)O)C(=O)N1CCC[C@H]1C(=O)N[C@@H](CO)C(=O)N1CCC[C@H]1C(=O)N[C@H](C(=O)N[C@@H](CC(N)=O)C(=O)N[C@H](C(=O)NCC(=O)N1CCC[C@H]1C(=O)N[C@@H](CC(N)=O)C(=O)N[C@H](C(=O)N[C@@H](Cc1ccc(O)cc1)C(N)=O)[C@@H](C)O)C(C)C)[C@@H](C)O [Example 56] (H-K([AEEA-γGlu-C20 diacid])CNTATCATQRLANFLRHSSPNFGAIPSPTNVGPNTY-NH2; disulfide 2-7 (inferred); N-terminus assumed) | ≥ 200 µM | ≥ 200 µM | ≥ 200 µM | ≥ 200 µM | 147 µM (≈ 668 µg/mL) | ≥ 200 µM | ≥ 200 µM | ≥ 200 µM | 42.6 | 42.6 | 42.6 | 42.6 | 42.6 | 42.6 | 42.6 | 0.04 nM | 131.4 | 131.4 | 131.4 | 5.26 nM | 
2 | CC[C@H](C)[C@H](NC(=O)[C@H](C)NC(=O)CNC(=O)[C@H](Cc1ccccc1)NC(=O)[C@H](CC(N)=O)NC(=O)[C@@H]1CCCN1C(=O)[C@H](CO)NC(=O)[C@H](CO)NC(=O)[C@H](Cc1c[nH]cn1)NC(=O)[C@H](CCCNC(=N)N)NC(=O)[C@H](CC(C)C)NC(=O)[C@H](Cc1ccccc1)NC(=O)[C@H](CC(N)=O)NC(=O)[C@H](C)NC(=O)[C@H](CC(C)C)NC(=O)[C@H](CCCNC(=N)N)NC(=O)[C@H](CCC(N)=O)NC(=O)[C@@H](NC(=O)[C@H](C)NC(=O)[C@@H]1CSSC[C@H](NC(=O)[C@@H](N)CCCCNC(=O)COCCOCCNC(=O)CC[C@H](NC(=O)CCCCCCCCCCCCCCCCCCC(=O)O)C(=O)O)C(=O)N[C@@H](CC(N)=O)C(=O)N[C@@H]([C@@H](C)O)C(=O)N[C@@H](C)C(=O)N[C@@H]([C@@H](C)O)C(=O)N1)[C@@H](C)O)C(=O)N1CCC[C@H]1C(=O)N[C@@H](CO)C(=O)N[C@@H](CO)C(=O)N[C@H](C(=O)N[C@@H](CC(N)=O)C(=O)N[C@H](C(=O)NCC(=O)N1CCC[C@H]1C(=O)N[C@@H](Cc1c[nH]cn1)C(=O)N[C@H](C(=O)N[C@@H](Cc1ccc(O)cc1)C(N)=O)[C@@H](C)O)C(C)C)[C@@H](C)O [Example 58] (H-K([AEEA-γGlu-C20 diacid])CNTATCATQRLANFLRHSSPNFGAIPSSTNVGPHTY-NH2; disulfide 2-7) | ≥ 200 µM | 96 µM (≈ 438 µg/mL) | ≥ 200 µM | ≥ 200 µM | 48 µM (≈ 219 µg/mL) | ≥ 200 µM | ≥ 200 µM | ≥ 200 µM | 109.4 | 109.4 | 109.4 | 109.4 | 109.4 | 109.4 | 109.4 | 0.135 nM | 76.6 | 76.6 | 76.6 | 10.3 nM | Solubility pH 6.5 Concentration ([1]; pH 6.5 (Table 9a)): ≧200 μM; Solubility pH 7.0 Concentration ([1]; pH 7.0 (Table 9a)): ≧200 μM
3 | CC[C@H](C)[C@H](NC(=O)[C@H](C)NC(=O)CNC(=O)[C@H](Cc1ccccc1)NC(=O)[C@H](CC(N)=O)NC(=O)[C@H](CCCCNC(=O)CC[C@H](NC(=O)CC[C@H](NC(=O)CCCCCCCCCCCCCCCCCCC(=O)O)C(=O)O)C(=O)O)NC(=O)[C@H](CO)NC(=O)[C@H](CO)NC(=O)[C@H](Cc1c[nH]cn1)NC(=O)[C@H](CCCNC(=N)N)NC(=O)[C@H](CC(C)C)NC(=O)[C@H](Cc1ccccc1)NC(=O)[C@H](CC(=O)O)NC(=O)[C@H](C)NC(=O)[C@H](CC(C)C)NC(=O)[C@H](CCCNC(=N)N)NC(=O)[C@H](CCC(N)=O)NC(=O)[C@@H](NC(=O)[C@H](C)NC(=O)[C@@H]1CSSC[C@H](NC(=O)[C@@H](N)CCCCN)C(=O)N[C@@H](CC(N)=O)C(=O)N[C@@H]([C@@H](C)O)C(=O)N[C@@H](C)C(=O)N[C@@H]([C@@H](C)O)C(=O)N1)[C@@H](C)O)C(=O)N1CCC[C@H]1C(=O)N[C@@H](CO)C(=O)N[C@@H](CO)C(=O)N[C@H](C(=O)N[C@@H](CC(N)=O)C(=O)N[C@H](C(=O)NCC(=O)N[C@@H](CO)C(=O)N[C@@H](CC(=O)O)C(=O)N[C@H](C(=O)N[C@@H](Cc1ccc(O)cc1)C(N)=O)[C@@H](C)O)C(C)C)[C@@H](C)O [Example 59] (H-KCNTATCATQRLADFLRHSSK([γGlu-γGlu-C20 diacid])NFGAIPSSTNVGSDTY-NH2; disulfide 2-7; N-terminus assumed) | ≥ 200 µM | ≥ 200 µM | ≥ 200 µM | ≥ 200 µM | ≥ 200 µM | ≥ 200 µM | ≥ 200 µM | ≥ 200 µM | 4.3 |  |  |  | 4.3 | 4.3 |  | 0.659 nM | 28.5 | 28.5 |  | 18.8 nM | IC50 ([2]; Table 4, read-out: hAmylin-R bind IC50): 1.19 nM
